Measured values: patent publication US9949979B2, “Use of inhibitors of the activity or function of PI3K” (NOVARTIS AG, priority 2011, dated 2018)

Test system: TLR9
Test: TLR9-induced IFNalpha in human PBMC (CpG2216, AlphaLISA)
Type: cell-based
Conditions: read-out: TLR9-ligand induced IFNα in human PBMC IC50
Description: 2.4 Determination of TLR9-Induced IFNalpha in Human Peripheral Blood Mononuclear Cells (PBMCs) and Isolated Plasmacytoid Dendritic Cells (pDCs)
Human blood (ca. 75 ml) was collected in 10 S-Monovette tubes containing Heparin (S-Monovette 7.5 mL NH Heparin 16 IU/mL blood; Starstedt). Leucosep™ tubes (30 mL #227290; Greiner Bio-one) were prepared by addition of 15 ml lymphocyte separation medium LSM1077™ per tube (#J15-004; PAA Laboratories) and centrifugation for 30 sec at 1000 g. Some 25 ml blood was transferred to Leucosep™ tubes following dilution with equal parts of PBS (without Ca2+/Mg2+; #14190-094). […] The PBMC were counted using a Countess® Automated cell counter (sample was pre-diluted 1:10 in Media, prior to the addition of equal volume (10 μl) of Trypan Blue). […]
Compounds were pre-diluted in 100% v/v DMSO (#41640-100 mL; Sigma-Aldrich), followed by transfer in Media (to achieve a final DMSO concentration of 0.25%). […] Plates were briefly centrifuged (200×g for 2 min at 22° C.) and supernatant samples (30 μl) removed for quantification of IFNα levels.
For quantification of IFNalpha the human interferon AlphaLISA Kit (#AL264F) from PerkinElmer was used. […] Data were collected for analysis and quantification of IFNα levels.
Data were analysed using Excel XL fit 4.0 (Microsoft) with XLfit add-in (IDBS; version 4.3.2). […]

## CCC(=O)N1CC[C@H](Nc2ncnc3c2CN(c2cnc(OC)c(C(F)(F)F)c2)CC3)C1 [Example 67, 1-{(S)-3-[6-(6-Methoxy-5-trifluoromethyl-pyridin-3-yl)-5,6,7,8-tetrahydro-pyrido[4,3-d]pyrimidin-4-ylamino]-pyrrolidin-1-yl}-propan-1-one]
  IC50: 109 nM
